Experiment [1] deals with carotid artery allograft (DA donors, Lewis recipients). Briefly: Prevention of graft vessel disease: carotid artery transplantation. It is filed as in vivo, rat. The settings on record: 0.1 to 10 mg/kg alone or in combination with Cyclosporin A, 8 weeks, osmotic minipump s.c. or oral. As for the experimental part: A. Prevention of Graft Vessel Disease
Inbred rat strains DA (RT1^a, donors) and Lewis (RT1^1, recipients of allografts), weighing between 200 and 350 grams are used. The animals are allowed unrestricted access to food and water before and after the operation.
Carotid artery transplantation:
The rats are anaesthetised with isofluorane (Abbott), (4-5% for induction, 1.5-2% for maintenance) and 300 μg atropin sulphate is injected subcutaneously following the induction. The left carotid artery is dissected free. The artery is clamped proximally and distally and a segment of about 7-10 mm is removed. The gap is bridged by an allograft which had also been subjected to 45 min cold ischemia. Ethilon 10/o sutures are used. Finally the skin is closed with 4/0 sutures. If needed, an Alzet osmotic minipump (Alza Corp. Palo Alto, Calif.) is then implanted subcutaneously over the back (alternatively the animals are treated orally).
The rats are subject to one of the following treatments: A compound of formula I alone at the doses of 0.1 to 10 mg/kg, or in combination with Cyclosporin A at the dose of 0.03, 0.3, or 1 mg.kg^−1·day^−1 is administered for 8 weeks either by using Alzet osmotic minipumps implanted subcutaneously or alternatively by oral administration. […]

For experiment [2], the system named is Syrian hamster heart xenograft in rat. Briefly: In vivo heart xenotransplantation (hamster-to-rat). The settings on record: 5-30 mg/kg/day orally. From the text:
B. In vivo heart xenotransplantation (hamster-to-rat)
The hamster-into-rat xenograft combination is a so-called difficult concordant combination. […] This is visualized in histology by destruction of blood vessels, exsudation and extravasation of erythrocytes, and influx by polymorphonuclear granulocytes; often there are signs of hemorrhage and thrombosis. Once this rejection has been overcome by effective inhibition of antibody synthesis or complement inactivation, a cellular rejection can emerge later on. This is visualized in histology by influx of mononuclear cells, including lymphocytes, lymphoblastoid cells, and macrophages, and destruction of the myocyte parenchyma. The inhibition of cellular rejection requires more immuno-suppression than that of allografts. Congenitally athymic (rnu/rnu) rats lack a competent (thymus-dependent) cellular immune system and generally are unable to reject allografts. Such animals do reject a hamster xenograft within 3-4 days in a similar fashion as euthymic rats, indicative that (at least part of) anti-hamster antibody synthesis in rats occurs following a thymus-independent B-cell response. […]
The graft is monitored daily by palpation of the abdomen. […] Animals are subjected to autopsy; apart from the graft, weight and histology is assessed for thymus, spleen, liver, seminal vesicles and testes. […]

For the molecule `CCCCCCCCc1ccc(CCC(N)(CO)CO)cc1` [Compound A, 2-amino-2-[2-(4-octylphenyl)ethyl]-1,3-propanediol], in experiment [1], the graft infiltration result was “significantly inhibit” and the neointima formation entry is listed as “significantly inhibit”. Besides, the graft survival entry in experiment [2] (athymic recipients) was “prolonged graft survival”. Further, the graft survival entry in experiment [2] (euthymic recipients) is listed as “prolonged graft survival”.

Source of the values: patent publication US6486209B2, “Use for 1,3-propanediol derivatives” (Novartis AG, priority 1996, dated 2002).
